The subject of one assay is MCF-7. The experiment in a line: cells. Format: cell-based. The conditions noted are these: Homo sapiens, MCF7, read-out: IC50 MCF-7.
Assay [1] relates to MCF7-ADR. The experiment in a line: cells. As to conditions: Homo sapiens, NCI/ADR-RES, read-out: IC50 MCF7-ADR.
Assay [2] relates to MCF7-ADR.

Drawing on patent publication US6080739A (priority 1996, dated 2000), this text covers IC50 and MCF7-ADR/MCF7 for 5 molecules.

Read-outs that look alike come from different tables or passages of the source.

Turning to `COc1cc2c(c(OC)c1OC)-c1ccc(SC)c(=O)cc1C1=Nc3cc(C(C)(C)C)cc(C(C)(C)C)c3OC1C2` (stereo not shown) [Compound IIa], the concentration for half-maximal inhibition (IC50) in the assay on MCF-7 is 17 nM. As to `CC(=O)O[C@H]1C(=O)[C@@]2(C)[C@H]([C@H](OC(=O)c3ccccc3)[C@]3(O)C[C@H](OC(=O)[C@H](O)[C@@H](NC(=O)c4ccccc4)c4ccccc4)C(C)=C1C3(C)C)[C@]1(OC(C)=O)CO[C@@H]1C[C@@H]2O` [Taxol], the IC50 with MCF-7 stood at 2.3 nM; in the assay with MCF7-ADR [1], 2400 nM. In the assay with MCF7-ADR [2] (human, mcf7-adr / mcf7 cells), the MCF7-ADR/MCF7 was 1,043. In the case of `COc1cc2c(c(OC)c1OC)-c1ccc(OC)c(=O)cc1C(=O)CC2` [Compound Ib, Colchicone], the IC50 in the assay with MCF-7 turned out to be 23 nM. `COc1cc2c(c(OC)c1OC)-c1ccc(SC)c(=O)cc1C(=O)CC2` [Compound Ia, Thiocolchicone]: the IC50 in the assay on MCF-7 came out at 6.2 nM. For `COc1cc2c(c(OC)c1OC)-c1ccc(OC)c(=O)cc1[C@@H](NC(C)=O)CC2` [Colchicine], in the assay on MCF7-ADR [2] (ratio of IC50 resistant to normal cells), the MCF7-ADR/MCF7 is on record as 6,600.
